What was measured:
Assay type in all cases: functional
[1] = system: PC-3; assay: Antitumor activity against human PC3 cells
[2] = system: EKVX; assay: Antitumor activity against human EKVX cells
[3] = system: MCF7; assay: Antitumor activity against human MCF7 cells
[4] = system: CCRF-CEM; assay: Antitumor activity against human CCRF-CEM cells
[5] = system: HT-29; assay: Antitumor activity against human HT-29 cells
[6] = system: SR; assay: Antitumor activity against human SR cells
[7] = system: A498; assay: Antitumor activity against human A498 cells
[8] = system: HOP-92; assay: Antitumor activity against human HOP92 cells
[9] = system: SN12C; assay: Antitumor activity against human SN12C cells
[10] = system: NCI-H460; assay: Antitumor activity against human NCI-H460 cells
[11] = Antitumor activity against human […] cells
[12] = system: SK-MEL-28; assay: Antitumor activity against human SK-MEL-28 cells
[13] = system: KM12; assay: Antitumor activity against human KM12 cells
[14] = system: SF-268; assay: Antitumor activity against human SF268 cells
[15] = system: MDA-MB-435; assay: Antitumor activity against human MDA-MB-435 cells
[16] = system: UACC-257; assay: Antitumor activity against human UACC257 cells
[17] = system: M14; assay: Antitumor activity against human M14 cells
[18] = system: OVCAR-3; assay: Antitumor activity against human OVCAR-3 cells
[19] = system: HCT-15; assay: Antitumor activity against human HCT15 cells
[20] = system: U-251; assay: Antitumor activity against human U251 cells
[21] = system: SK-OV-3; assay: Antitumor activity against human SKOV3 cells
[22] = system: MDA-N; assay: Antitumor activity against human MDA-N cells
[23] = Antitumor activity against human MCF7/ADR cells; conditions: NCI/ADR-RES
[24] = system: HCT-116; assay: Antitumor activity against human HCT116 cells
[25] = system: ACHN; assay: Antitumor activity against human ACHN cells
[26] = system: MDA-MB-231; assay: Antitumor activity against human MDA-MB-231 cells
[27] = system: SK-MEL-2; assay: Antitumor activity against human SK-MEL-2 cells
[28] = system: NCI-H322M; assay: Antitumor activity against human NCI-H322M cells
[29] = system: HL-60(TB); assay: Antitumor activity against human HL-60(TB) cells
[30] = system: NCI-H522; assay: Antitumor activity against human NCI-H522 cells
[31] = read-out: pLC50 (the source's name) (converted)

## C#C[C@@H](O)/C=C/CCCCCCCCC/C=C\CCCCCC
[1]; [31]
  CC50: 0.138 µM
[1]; read-out: pTGI (converted)
  TGI: 0.0741 µM
[2]
  GI50: 0.0468 µM
[2]; [31]
  CC50: 0.145 µM
[2]; read-out: pTGI (converted)
  TGI: 0.0813 µM
[3]
  GI50: 0.0138 µM
[3]; [31]
  CC50: 0.123 µM
[3]; read-out: pTGI (converted)
  TGI: 0.0479 µM
[4]
  GI50: 0.000631 µM
[4]; [31]
  CC50: 0.0617 µM
[4]; read-out: pTGI (converted)
  TGI: 0.00155 µM
[5]
  GI50: 0.0309 µM
[5]; [31]
  CC50: 0.138 µM
[5]; read-out: pTGI (converted)
  TGI: 0.0661 µM
[6]
  GI50: 0.0155 µM
[6]; [31]
  CC50: 0.174 µM
[6]; read-out: pTGI (converted)
  TGI: 0.055 µM
[7]
  GI50: 0.0589 µM
[7]; [31]
  CC50: 0.155 µM
[7]; read-out: pTGI (converted)
  TGI: 0.0955 µM
[8]
  GI50: 0.0468 µM
[8]; [31]
  CC50: 0.145 µM
[8]; read-out: pTGI (converted)
  TGI: 0.0832 µM
[9]
  GI50: 0.0288 µM
[9]; [31]
  CC50: 0.123 µM
[9]; read-out: pTGI (converted)
  TGI: 0.0589 µM
[10]
  GI50: 0.0427 µM
[10]; [31]
  CC50: 0.151 µM
[10]; read-out: pTGI (converted)
  TGI: 0.0794 µM
[11]
  GI50: 0.00676 µM
[11]; [31]
  CC50: 0.129 µM
[11]; read-out: pTGI (converted)
  TGI: 0.0186 µM
[12]
  GI50: 0.0417 µM
[12]; [31]
  CC50: 0.138 µM
[12]; read-out: pTGI (converted)
  TGI: 0.0759 µM
[13]
  GI50: 0.0372 µM
[13]; [31]
  CC50: 0.132 µM
[13]; read-out: pTGI
  TGI: 0.0708 µM
[14]
  GI50: 0.0389 µM
[14]; [31]
  CC50: 0.138 µM
[14]; read-out: pTGI (converted)
  TGI: 0.0741 µM
[15]
  GI50: 0.0269 µM
[15]; [31]
  CC50: 0.126 µM
[15]; read-out: pTGI (converted)
  TGI: 0.0575 µM
[16]
  GI50: 0.0324 µM
[16]; [31]
  CC50: 0.126 µM
[16]; read-out: pTGI (converted)
  TGI: 0.0646 µM
[17]
  GI50: 0.00832 µM
[17]; [31]
  CC50: 0.1 µM
[17]; read-out: pTGI (converted)
  TGI: 0.0398 µM
[18]
  GI50: 0.049 µM
[18]; [31]
  CC50: 0.145 µM
[18]; read-out: pTGI (converted)
  TGI: 0.0851 µM
[19]
  GI50: 0.0363 µM
[19]; [31]
  CC50: 0.132 µM
[19]; read-out: pTGI (converted)
  TGI: 0.0692 µM
[20]
  GI50: 0.0407 µM
[20]; [31]
  CC50: 0.138 µM
[20]; read-out: pTGI (converted)
  TGI: 0.0741 µM
[21]
  GI50: 0.0617 µM
[21]; [31]
  CC50: 0.158 µM
[21]; read-out: pTGI (converted)
  TGI: 0.1 µM
[22]
  GI50: 0.0251 µM
[22]; [31]
  CC50: 0.115 µM
[22]; read-out: pTGI (converted)
  TGI: 0.0537 µM
[23]
  GI50: 0.038 µM
[23]; [31]
  CC50: 0.138 µM
[23]; read-out: pTGI (converted)
  TGI: 0.0724 µM
[24]
  GI50: 0.0251 µM
[24]; [31]
  CC50: 0.117 µM
[24]; read-out: pTGI (converted)
  TGI: 0.055 µM
[25]
  GI50: 0.0457 µM
[25]; [31]
  CC50: 0.141 µM
[25]; read-out: pTGI (converted)
  TGI: 0.0794 µM
[26]
  GI50: 0.0479 µM
[26]; [31]
  CC50: 0.145 µM
[26]; read-out: pTGI (converted)
  TGI: 0.0832 µM
[27]
  GI50: 0.00813 µM
[27]; [31]
  CC50: 0.0832 µM
[27]; read-out: pTGI (converted)
  TGI: 0.0234 µM
[28]
  GI50: 0.0537 µM
[28]; [31]
  CC50: 0.151 µM
[28]; read-out: pTGI (converted)
  TGI: 0.0912 µM
[29]
  GI50: 0.0102 µM
[29]; [31]
  CC50: 0.129 µM
[29]; read-out: pTGI (converted)
  TGI: 0.0363 µM
[30]
  GI50: 0.000115 µM
  LC50: 0.00118 µM
[30]; read-out: pTGI (converted)
  TGI: 0.000436 µM

Reference: ChEMBL document CHEMBL1150095, “Antitumor activity and stereochemistry of acetylenic alcohols from the sponge Cribrochalina vasculum” (1995)
